# Tests used:
# [1] = test system: common (oilseed) sunflower; test: Test C pre-/postemergence herbicide test; type: in vivo, Helianthus annuus
# Outline: (§1)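 Pre- and postemergence application, solvent/surfactant formulation; post at 1- to 4-leaf stage (2–18 cm). Greenhouse 12–14 d. Visual rating vs controls, 0 = no effect, 100 = complete control.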
# giant foxtail = test: Test C pre-/postemergence herbicide test; type: in vivo, Setaria faberi; conditions: for Plant response rating (0 = no effect, 100 = complete control), Foxtail, Giant / Plant response rating, Foxtail, Giant: preemergence
# Outline: as §1
# [2] = test system: smallflower umbrella sedge; test: Test C flooded paddy test; type: in vivo, Cyperus difformis; conditions: for Plant response rating, Sedge, Umbrella: 500 g ai/ha, visual rating after 12 to 14 days
# bermudagrass = test: Test C pre-/postemergence herbicide test; type: in vivo, Cynodon dactylon; conditions: for Plant response rating (0 = no effect, 100 = complete control), Bermudagrass / Plant response rating, Bermudagrass: preemergence; for Bermudagrass plant response rating: Preemergence
# Outline: as §1
# goosegrass = test: Test C pre-/postemergence herbicide test; type: in vivo, Eleusine indica; conditions: for Plant response rating (0 = no effect, 100 = complete control), Goosegrass / Plant response rating, Goosegrass: preemergence
# Outline: as §1
# common ragweed = test: Test C pre-/postemergence herbicide test; type: in vivo, Ambrosia elatior; design: key to Plant response rating, Ragweed: 0 = no effect, 100 = complete control; conditions: for Plant response rating (0 = no effect, 100 = complete control), Ragweed / Plant response rating, Ragweed: preemergence
# Outline: as §1
# woolly cupgrass = test: Test C pre-/postemergence herbicide test; type: in vivo, Eriochloa villosa; conditions: for Plant response rating (0 = no effect, 100 = complete control), Cupgrass, Woolly / Plant response rating, Cupgrass, Woolly: preemergence
# Outline: as §1
# [3] = Preemergence, 500 g ai/ha, scale 0 to 100, 0 no effect, 100 complete control
# [4] = 125 g ai/ha, scale 0 (no effect) to 100 (complete control), visual, 12 to 14 days
# [5] = 250 g ai/ha, scale 0 to 100 (0 no effect, 100 complete control), visual, 12 to 14 days
# [6] = 62 g ai/ha, scale 0 to 100 (0 no effect, 100 complete control)
# [7] = 250 g ai/ha, scale of 0 to 100, 0 is no effect, 100 is complete control
# [8] = scale 0 to 100 (0 no effect, 100 complete control)
# [9] = 500 g ai/ha, scale 0 to 100, 0 no effect, 100 complete control
# [10] = 62 g ai/ha, preemergence, scale 0 to 100
# [11] = 250 g ai/ha, scale 0-100, preemergence
# [12] = 500 g ai/ha, scale 0 to 100 (0 no effect, 100 complete control), visual, 12 to 14 days, preemergence
# [13] = 500 g ai/ha, scale 0 to 100 (0 no effect, 100 complete control), visual, 12 to 14 days
# [14] = 125 g ai/ha, scale 0 to 100 (0 no effect, 100 complete control)
# [15] = 62 g ai/ha, scale 0 to 100, 0 no effect, 100 complete control
compound,measurement,setting,value
C=CCn1nc(C(C)(C)C)cc1C(=O)Nc1cccc(C(=O)NCC)c1 [Compound 56],"Plant response rating (0 = no effect, 100 = complete control), Sunflower","[1]; 62 g ai/ha, preemergence",0
same,"Plant response rating, Sunflower","[1]; 125 g ai/ha, scale 0 (no effect) to 100 (complete control), visual, 12 to 14 days, preemergence",0
same,"Plant response rating, Sunflower","[1]; 250 g ai/ha, scale 0 to 100 (0 no effect, 100 complete control), visual, 12 to 14 days, preemergence",0
same,Sunflower plant response rating,[1]; [3],0
same,"Plant response rating (0 = no effect, 100 = complete control), Foxtail, Giant",giant foxtail; 62 g ai/ha,45
same,"Plant response rating, Foxtail, Giant",giant foxtail; [4],85
same,"Plant response rating, Foxtail, Giant",giant foxtail; [5],100
same,"Foxtail, Giant plant response rating",giant foxtail; [3],100
same,"Sedge, Umbrella plant response rating",[2]; [6],45
same,"Sedge, Umbrella plant response rating","[2]; 125 g ai/ha, scale of 0 to 100, 0 is no effect, 100 is complete control",85
same,"Sedge, Umbrella plant response rating",[2]; [7],90
same,"Plant response rating, Sedge, Umbrella",[2]; [8],90
same,"Plant response rating (0 = no effect, 100 = complete control), Bermudagrass",bermudagrass; 62 g ai/ha,85
same,"Plant response rating, Bermudagrass",bermudagrass; [4],90
same,"Plant response rating, Bermudagrass",bermudagrass; [5],95
same,Bermudagrass plant response rating,bermudagrass; [9],95
same,"Plant response rating (0 = no effect, 100 = complete control), Goosegrass",goosegrass; 62 g ai/ha,60
same,"Plant response rating, Goosegrass",goosegrass; [4],85
same,"Plant response rating, Goosegrass",goosegrass; [5],90
same,Goosegrass plant response rating,goosegrass; [3],95
same,"Plant response rating (0 = no effect, 100 = complete control), Ragweed",common ragweed; 62 g ai/ha,60
same,"Plant response rating, Ragweed",common ragweed; [4],95
same,"Plant response rating, Ragweed",common ragweed; [5],95
same,Ragweed plant response rating,common ragweed; [3],95
same,"Plant response rating (0 = no effect, 100 = complete control), Cupgrass, Woolly",woolly cupgrass; 62 g ai/ha,0
same,"Plant response rating, Cupgrass, Woolly",woolly cupgrass; [4],0
same,"Plant response rating, Cupgrass, Woolly",woolly cupgrass; [5],35
same,"Cupgrass, Woolly plant response rating",woolly cupgrass; [3],40
CCn1nc(C2(C)CC2)cc1C(=O)Nc1cc(C(=O)N2CC=CC2)ccc1F [Compound 301],"Plant response rating, Sunflower",[1]; [10],0
same,"Plant response rating, Sunflower",[1]; [11],0
same,"Plant response rating, Sunflower",[1]; [12],0
same,"Plant response rating, Foxtail, Giant","giant foxtail; 62 g ai/ha, scale 0 to 100",35
same,"Plant response rating, Foxtail, Giant",giant foxtail; [4],60
same,"Plant response rating, Foxtail, Giant","giant foxtail; 250 g ai/ha, scale 0-100",95
same,"Plant response rating, Foxtail, Giant",giant foxtail; [13],100
same,"Sedge, Umbrella plant response rating","[2]; 62 g ai/ha, scale 0 to 100",80
same,"Sedge, Umbrella plant response rating",[2]; [14],90
same,"Sedge, Umbrella plant response rating",[2]; [7],90
same,"Plant response rating, Sedge, Umbrella",[2]; [8],95
same,"Plant response rating, Bermudagrass",bermudagrass; [15],80
same,"Plant response rating, Bermudagrass",bermudagrass; [4],90
same,"Plant response rating, Bermudagrass","bermudagrass; 250 g ai/ha, scale 0-100",90
same,Bermudagrass plant response rating,bermudagrass; [9],95
same,"Plant response rating, Goosegrass","goosegrass; 62 g ai/ha, scale 0 to 100",50
same,"Plant response rating, Goosegrass",goosegrass; [4],90
same,"Plant response rating, Goosegrass","goosegrass; 250 g ai/ha, scale 0-100",100
same,"Plant response rating, Goosegrass",goosegrass; [13],100
same,"Plant response rating, Ragweed","common ragweed; 62 g ai/ha, scale 0 to 100",10
same,"Plant response rating, Ragweed","common ragweed; 250 g ai/ha, scale 0-100",65
same,"Plant response rating, Ragweed",common ragweed; [13],70
same,"Plant response rating, Cupgrass, Woolly","woolly cupgrass; 62 g ai/ha, scale 0 to 100",10
same,"Plant response rating, Cupgrass, Woolly",woolly cupgrass; [4],50
same,"Plant response rating, Cupgrass, Woolly","woolly cupgrass; 250 g ai/ha, scale 0-100",70
same,"Plant response rating, Cupgrass, Woolly",woolly cupgrass; [13],90
CCN1N=C(C(C)(C)C)CC1C(=O)Nc1cc(C(=O)N2CC=CC2)ccc1F (racemic) [Compound 310],"Plant response rating, Sunflower",[1]; [10],0
same,"Plant response rating, Sunflower",[1]; [11],0
same,"Plant response rating, Sunflower",[1]; [12],0
same,"Plant response rating, Foxtail, Giant","giant foxtail; 62 g ai/ha, scale 0 to 100",5
same,"Plant response rating, Foxtail, Giant",giant foxtail; [4],40
same,"Plant response rating, Foxtail, Giant","giant foxtail; 250 g ai/ha, scale 0-100",85
same,"Plant response rating, Foxtail, Giant",giant foxtail; [13],100
same,"Sedge, Umbrella plant response rating","[2]; 62 g ai/ha, scale 0 to 100",35
same,"Sedge, Umbrella plant response rating",[2]; [14],85
same,"Sedge, Umbrella plant response rating",[2]; [7],85
same,"Plant response rating, Sedge, Umbrella",[2]; [8],85
same,"Plant response rating, Bermudagrass",bermudagrass; [15],50
same,"Plant response rating, Bermudagrass",bermudagrass; [4],85
same,"Plant response rating, Bermudagrass","bermudagrass; 250 g ai/ha, scale 0-100",100
same,Bermudagrass plant response rating,bermudagrass; [9],100
same,"Plant response rating, Goosegrass","goosegrass; 62 g ai/ha, scale 0 to 100",70
same,"Plant response rating, Goosegrass",goosegrass; [4],80
same,"Plant response rating, Goosegrass","goosegrass; 250 g ai/ha, scale 0-100",95
same,"Plant response rating, Goosegrass",goosegrass; [13],95
same,"Plant response rating, Ragweed","common ragweed; 62 g ai/ha, scale 0 to 100",0
same,"Plant response rating, Ragweed","common ragweed; 250 g ai/ha, scale 0-100",50
same,"Plant response rating, Ragweed",common ragweed; [13],80
same,"Plant response rating, Cupgrass, Woolly","woolly cupgrass; 62 g ai/ha, scale 0 to 100",5
same,"Plant response rating, Cupgrass, Woolly",woolly cupgrass; [4],10
same,"Plant response rating, Cupgrass, Woolly","woolly cupgrass; 250 g ai/ha, scale 0-100",70
CCn1nc(C(C)(C)C)cc1C(=O)Nc1cc(C(=O)N(C)OC)ccc1F [Compound 244],"Plant response rating, Sunflower",[1]; [10],0
same,"Plant response rating, Sunflower",[1]; [11],15
same,"Plant response rating, Sunflower",[1]; [12],20
same,"Plant response rating, Foxtail, Giant","giant foxtail; 62 g ai/ha, scale 0 to 100",80
same,"Plant response rating, Foxtail, Giant",giant foxtail; [4],95
same,"Plant response rating, Foxtail, Giant","giant foxtail; 250 g ai/ha, scale 0-100",95
same,"Plant response rating, Foxtail, Giant",giant foxtail; [13],100
same,"Sedge, Umbrella plant response rating",[2]; [6],20
same,"Sedge, Umbrella plant response rating",[2]; [14],65
same,"Sedge, Umbrella plant response rating",[2]; [7],70
same,"Plant response rating, Sedge, Umbrella",[2]; [8],85
same,"Plant response rating, Bermudagrass",bermudagrass; [15],95
same,"Plant response rating, Bermudagrass",bermudagrass; [4],100
same,"Plant response rating, Bermudagrass","bermudagrass; 250 g ai/ha, scale 0-100",100
same,Bermudagrass plant response rating,bermudagrass; [9],100
same,"Plant response rating, Goosegrass","goosegrass; 62 g ai/ha, scale 0 to 100",70
same,"Plant response rating, Goosegrass",goosegrass; [4],95
same,"Plant response rating, Goosegrass","goosegrass; 250 g ai/ha, scale 0-100",100
same,"Plant response rating, Goosegrass",goosegrass; [13],100
same,"Plant response rating, Ragweed","common ragweed; 62 g ai/ha, scale 0 to 100",95
same,"Plant response rating, Ragweed","common ragweed; 250 g ai/ha, scale 0-100",100
same,"Plant response rating, Ragweed",common ragweed; [13],100
same,"Plant response rating, Cupgrass, Woolly","woolly cupgrass; 62 g ai/ha, scale 0 to 100",65
same,"Plant response rating, Cupgrass, Woolly",woolly cupgrass; [4],65
same,"Plant response rating, Cupgrass, Woolly","woolly cupgrass; 250 g ai/ha, scale 0-100",85
same,"Plant response rating, Cupgrass, Woolly",woolly cupgrass; [13],95
C=CCNC(=O)c1cccc(NC(=O)c2nn(C(C)C)nc2CC)c1 [Compound 382],"Plant response rating, Sunflower",[1]; [10],0
same,"Plant response rating, Sunflower",[1]; [11],0
same,"Plant response rating, Sunflower",[1]; [12],20
same,"Plant response rating, Foxtail, Giant","giant foxtail; 62 g ai/ha, scale 0 to 100",60
same,"Plant response rating (0 = no effect, 100 = complete control), Foxtail, Giant",giant foxtail; 125 g ai/ha,90
same,"Plant response rating, Foxtail, Giant","giant foxtail; 250 g ai/ha, scale 0-100",100
same,"Plant response rating, Foxtail, Giant",giant foxtail; [13],100
same,"Sedge, Umbrella plant response rating","[2]; 62 g ai/ha, scale 0 to 100",75
same,"Sedge, Umbrella plant response rating",[2]; [14],80
same,"Sedge, Umbrella plant response rating",[2]; [7],85
same,"Plant response rating, Sedge, Umbrella",[2]; [8],90
same,"Plant response rating, Bermudagrass",bermudagrass; [15],60
same,"Plant response rating (0 = no effect, 100 = complete control), Bermudagrass",bermudagrass; 125 g ai/ha,80
same,"Plant response rating, Bermudagrass","bermudagrass; 250 g ai/ha, scale 0-100",85
same,"Plant response rating, Bermudagrass",bermudagrass; [13],90
same,"Plant response rating, Goosegrass","goosegrass; 62 g ai/ha, scale 0 to 100",75
same,"Plant response rating (0 = no effect, 100 = complete control), Goosegrass",goosegrass; 125 g ai/ha,90
same,"Plant response rating, Goosegrass","goosegrass; 250 g ai/ha, scale 0-100",95
same,"Plant response rating, Goosegrass",goosegrass; [13],100
same,"Plant response rating, Ragweed","common ragweed; 62 g ai/ha, scale 0 to 100",20
same,"Plant response rating (0 = no effect, 100 = complete control), Ragweed",common ragweed; 125 g ai/ha,65
same,"Plant response rating, Ragweed","common ragweed; 250 g ai/ha, scale 0-100",90
same,"Plant response rating, Ragweed",common ragweed; [13],100
same,"Plant response rating, Cupgrass, Woolly","woolly cupgrass; 62 g ai/ha, scale 0 to 100",0
same,"Plant response rating (0 = no effect, 100 = complete control), Cupgrass, Woolly",woolly cupgrass; 125 g ai/ha,0
same,"Plant response rating, Cupgrass, Woolly","woolly cupgrass; 250 g ai/ha, scale 0-100",20
same,"Plant response rating, Cupgrass, Woolly",woolly cupgrass; [13],40

# From patent publication US20060069132A1, “Azolecarboxamide herbicides” (priority 2004, published 2006)
